Tests used:
[1] = molecular target: T1, protein-farnesyl transferase (PFT) (Rattus norvegicus, UniProt Q02293+Q04631); experiment: Inhibitory activities against protein-farnesyl transferase (PFT); type: biochemical; conditions: PFT from rat brain; prenyl acceptor H-ras protein or biotin-added Lys-Thr-Ser-Cys-Val-Ile-Met; 37° C., 20 minutes; read-out: 50% inhibitory concentrations against PFT activities, IC50
T1 construct: soluble fraction of rat's brain; from tissue; host or cells: rat brain, soluble fraction, 30%-50% ammonium sulfate cut, Q-Sepharose fraction

[2] = system: farnesyl-modification of Ras protein in NIH3T3 cells transformed by activated ras gene; experiment: Inhibitory activities against farnesyl-modification of Ras protein in NIH3T3 cells transformed by activated ras gene; type: cell-based; conditions: Mus musculus, 24 hours, read-out: 50% inhibitory concentrations against farnesyl-modification of Ras protein, IC50
Description: Using the compounds of the present invention, inhibitory activities against farnesyl-modification of Ras protein in NIH3T3 cells transformed by activated ras gene, were measured.
The NIH3T3 cells transformed by activated ras gene, were seeded on a culture plate and cultured for 3 days. Then, a compound of the preset invention in a predetermined concentration was added to the culture. In accordance with the method disclosed in J. Biol. Chem., vol. […] The cell extract was subjected to SDS polyacrylamide gel electrophoresis to separate farnesyl-modified Ras protein and non-farnesyl-modified Ras protein. The protein on the gel was transferred onto a nitrocellulose membrane, and an anti-Ras protein antibody was reacted as a probe (primary antibody reaction). An anti-primary antibody, a peroxidase inclusion (secondary antibody), was reacted, and then Ras protein was detected by a chemical fluorescence enhancing kit. The proportion of non-farnesyl-modified Ras protein was quantified by a densitometer and taken as the inhibitory activity.

[3] = system: NIH3T3 Cells Transformed by Activated Ras Gene (NIH/ras); experiment: Antitumor effect against NIH/ras cells in nude mice, intraperitoneal (tumor weight); type: in vivo, nude mouse; conditions: for Growth inhibition (tumor weight): once a day days 1-6, day 7; for Weight of tumor, Average ± standard deviation: once a day days 1-6, weighed day 7
Source text: Pharmacological Test Example 3 (Therapeutic Effects to NIH3T3 Cells Transformed by Activated Ras Gene (NIH/ras))
(§1) ^1) Tumor inoculation: 10^6 cells were inoculated subcutaneously
(§2) to a female nude mouse.
^2) Dose: Each dose was intraperitonealy administered once a day from
the first day to the sixth day after the inoculation of the cells,.
^3) Weight of tumor: On the seventh day after inoculation of the
cells, the tumors were weighed.
^4) Growth inhibition: (1(average weight of tumor of the treated
group/average weight of tumor of the control group)) × 100
* and **: Statistical analyses by utest are 5% and 1%, respectively.

[4] = system: NIH3T3 Cells Transformed by Activated Ras Gene (NIH/ras); experiment: Antitumor effect against NIH/ras cells in nude mice, subcutaneous (tumor volume); type: in vivo, nude mouse; conditions: for Growth inhibition (tumor volume): once a day days 1-10, day 8; for Volume of tumor, Average ± standard deviation: once a day days 1-10, measured day 8, ** 1% (u test)
Description: as §1, §2
^2 Dose: Each dose was subcutaneously administered once a day from th
first day to the tenth day after the inoculation of the cells.
^3) Volume of tumor: On the eighth day after inoculation of the cells
volume of the tumors were measured.
^4) Growth inhibition: (1(average volume of tumor of the treated
group/average volume of tumor of the control group)) × 100

[5] = 10 mg/kg/injection subcutaneous
[6] = 20 mg/kg/injection subcutaneous
[7] = 40 mg/kg/injection subcutaneous

SMILES | IC50 [1] [nM] | IC50 [2] [nM] | also measured
C[C@H]([C@H](CCc1ccccc1)c1ccc(Oc2ccccc2)cc1)N(CC(=O)O)C(=O)[C@H]1OC(C(=O)O)(C(=O)O)O[C@@H]1C(=O)O [Example 22, (4S,5S)-4-[N-(carboxymethyl)-N-{(1R,2R)-1-methyl-2-(4-phenoxyphenyl)-4-phenylbutyl}carbamoyl]-1,3-dioxolane-2,2,5-tricarboxylic acid] | 0.095 | 1900 | Growth inhibition (tumor volume) [4, 5]: 75%; Volume of tumor, Average ± standard deviation [4, 5]: 0.164 ± 0.073 cm^3; Growth inhibition (tumor volume) [4, 6]: 92%; Volume of tumor, Average ± standard deviation [4, 6]: 0.052 ± 0.030 cm^3; Growth inhibition (tumor volume) [4, 7]: 99%; Volume of tumor, Average ± standard deviation [4, 7]: 0.010 ± 0.009 cm^3
C[C@H]([C@H](CCc1ccccc1)c1ccc(Oc2ccccc2)cc1)N(CC(=O)O)C(=O)[C@@H]1OC(C(=O)O)(C(=O)O)O[C@@H]1C(=O)O (relative stereo) [Example 23 (4R*, 5S*)-isomer, (4R*,5S*)-4-[N-(carboxymethyl)-N-{(1R,2R)-1-methyl-2-(4-phenoxyphenyl)-4-phenylbutyl}carbamoyl]-1,3-dioxolane-2,2,5-tricarboxylic acid] | 0.085 | 2100 | 
C[C@H]([C@H](CCc1ccccc1)c1ccc(Oc2ccccc2)cc1)N(CC(=O)O)C(=O)[C@H]1OC(C(=O)O)(C(=O)O)O[C@H]1C(=O)O (relative stereo) [Example 23 (4S*, 5R*)-isomer, (4S*,5R*)-4-[N-(carboxymethyl)-N-{(1R,2R)-1-methyl-2-(4-phenoxyphenyl)-4-phenylbutyl}carbamoyl]-1,3-dioxolane-2,2,5-tricarboxylic acid] | 0.075 | 2000 | 

The next lines start with results.

IC50 [1] [nM] | SMILES | IC50 [2] [nM] | also measured
0.16 | C[C@H]([C@H](CCc1ccccc1)c1ccc(Oc2ccccc2)cc1)N(CC(=O)O)C(=O)[C@@H]1COC(C(=O)O)(C(=O)O)O1 [Example 9, (4S)-4-[N-(carboxymethyl)-N-{(1R,2R)-1-methyl-2-(4-phenoxyphenyl)-4-phenylbutyl}carbamoyl]-1,3-dioxolane-2,2-dicarboxylic acid] | 240 | Growth inhibition (tumor weight) ([3]; 20 mg/kg/injection intraperitoneal): 67%; Weight of tumor, Average ± standard deviation ([3]; 20 mg/kg/injection intraperitoneal, * 5% (u test)): 0.024 ± 0.018 g; Growth inhibition (tumor weight) ([3]; 40 mg/kg/injection intraperitoneal): 80%; Weight of tumor, Average ± standard deviation ([3]; 40 mg/kg/injection intraperitoneal, ** 1% (u test)): 0.015 ± 0.013 g; Growth inhibition (tumor weight) ([3]; 80 mg/kg/injection intraperitoneal): 90%; Weight of tumor, Average ± standard deviation ([3]; 80 mg/kg/injection intraperitoneal, ** 1% (u test)): 0.008 ± 0.006 g; Growth inhibition (tumor weight) ([3]; 160 mg/kg/injection intraperitoneal): 98%; Weight of tumor, Average ± standard deviation ([3]; 160 mg/kg/injection intraperitoneal, ** 1% (u test)): 0.002 ± 0.001 g
0.2 | CC(C(CCc1ccccc1)c1ccc(Oc2ccccc2)c(O)c1)N(CC(=O)O)C(=O)[C@@H]1COC(C(=O)O)(C(=O)O)O1 (single isomer, unassigned) [Example 32] | 590 | 
0.098 | C[C@H]([C@H](CCc1ccccc1)c1ccc(Oc2ccccc2)cc1)N(CC(=O)O)C(=O)[C@@H]1OC(C(=O)O)(C(=O)O)O[C@H]1C(=O)O [Example 21, (4R,5R)-4-[N-(carboxymethyl)-N-{(1R,2R)-1-methyl-2-(4-phenoxyphenyl)-4-phenylbutyl}carbamoyl]-1,3-dioxolane-2,2,5-tricarboxylic acid] | 2100 | 
0.22 | COc1cc(C(CCc2ccccc2)C(C)N(CC(=O)O)C(=O)[C@@H]2COC(C(=O)O)(C(=O)O)O2)ccc1Oc1ccccc1 (single isomer, unassigned) [Example 31] | 550 | 

Reference: patent US6011174A, “Cyclic amic acid derivatives” (Banyu Pharmaceutical Co., Ltd., priority 1996, dated 2000)
